Experimental data: BigSolDB 2.1

COc1ccc(C(=O)O)cc1
solubility (mole fraction)
Conditions	273.15 K	278.15 K	283.15 K	288.15 K	293.15 K	298.15 K	303.15 K	308.15 K	313.15 K	318.15 K
in acetonitrile	0.00105	0.00122	0.00156	0.00194	0.00231	0.00281	0.00351	0.00419	0.00492	0.00603
in chloroform	0.00116	0.00135	0.00173	0.0021	0.00251	0.00299	0.00383	0.0045	0.00538	0.00637
in ethanol	0.00549	0.00653	0.00757	0.00887	0.0101	0.0118	0.0136	0.0163	0.0188	0.0221
in ethyl acetate	0.0053	0.00601	0.00728	0.00853	0.00954	0.0112	0.0128	0.0142	0.0167	0.0207
in isopropanol	0.00377	0.00489	0.00597	0.00722	0.00872	0.0105	0.0127	0.0152	0.0176	0.0211
in methanol	0.00454	0.00526	0.00632	0.00752	0.00857	0.0102	0.0117	0.0138	0.0161	0.0193
in methyl acetate	0.00527	0.00611	0.0073	0.00849	0.00968	0.0112	0.0131	0.0153	0.0176	0.0213
in n-propanol	0.00455	0.00527	0.00631	0.00754	0.00895	0.0106	0.0127	0.0149	0.0174	0.0201
